Assay results taken from ChEMBL document CHEMBL3046345, “Synthesis of novel pyrazole and pyrimidine derivatives bearing sulfonamide moiety as antitumor and radiosensitizing agents” (Med Chem Res, 2012).

How the values were obtained:
[1] = tested on: HepG2; assay: Cytotoxicity against Homo sapiens (human) HepG2 cells at 40 uM relative to control; type: functional
[2] = tested on: HepG2; assay: Cytotoxicity against Homo sapiens (human) HepG2 cells at 25 uM relative to control; type: functional
[3] = tested on: HepG2; assay: Potentiation of gamma-irradiation-induced cytotoxicity against Homo sapiens (human) HepG2 cells at 12.5 uM relative to control; type: functional
[4] = tested on: HepG2; assay: Potentiation of gamma-irradiation-induced cytotoxicity against Homo sapiens (human) HepG2 cells at 40 uM relative to control; type: functional
[5] = tested on: HepG2; assay: Cytotoxicity against Homo sapiens (human) HepG2 cells at 12.5 uM relative to control; type: functional
[6] = tested on: HepG2; assay: Potentiation of gamma-irradiation-induced cytotoxicity against Homo sapiens (human) HepG2 cells at 5 uM relative to control; type: functional
[7] = tested on: MCF7; assay: Anticancer activity against Homo sapiens (human) MCF7 cells after 48 hr by SRB assay; type: functional, cell-based; conditions: MCF7, 48 h
[8] = tested on: HepG2; assay: Anticancer activity against Homo sapiens (human) HepG2 cells after 48 hr by SRB assay; type: functional, cell-based; conditions: HepG2, 48 h
[9] = tested on: HepG2; assay: Cytotoxicity against Homo sapiens (human) HepG2 cells at 5 uM relative to control; type: functional
[10] = tested on: HepG2; assay: Potentiation of gamma-irradiation-induced cytotoxicity against Homo sapiens (human) HepG2 cells at 25 uM relative to control; type: functional

IC50 [7] [µM]	IC50 [8] [µM]	Compound	Activity [1] [%]	Activity [2] [%]	Activity [3] [%]	Activity [4] [%]	Activity [5] [%]	Activity [6] [%]	Activity [9] [%]	Activity [10] [%]
5.1	3.49	NC1=NN(c2ccccc2)C(=O)/C1=C/Nc1ccc(S(=O)(=O)Nc2ccccn2)cc1	80.2	66.9	80.8	91.8	57.82	62.1	39.49	76.7
6.98	3.76	Cc1cc(C)nc(NS(=O)(=O)c2ccc(N/C=C3/C(=N)N(c4ccccc4)N=C3N)cc2)n1	80.7	74.3	86	88.4	64.14	75.69	47.94	92.9
7.78	3.22	N=C1NN=C(N)/C1=C\Nc1ccc(S(=O)(=O)Nc2cnc3ccccc3n2)cc1	85.8	73.2	67	88.2	55.27	53.6	18.15	80.6
6.71	3.21	NC1=NN(c2ccccc2)C(=O)/C1=C/Nc1ccc(S(=O)(=O)Nc2cnc3ccccc3n2)cc1	79.39	76.15	77.8	88.5	65.3	57.1	40.36	93.5
5.63	3.49	Cc1cc(C)nc(NS(=O)(=O)c2ccc(-n3cc(C#N)c(=O)n(-c4ccccc4)c3=S)cc2)n1	79.6	62.2	70.8	87.3	49.12	47.2	19.98	77.5
